Measurements reported in patent US4656258A, “Macrocin derivatives” (Eli Lilly and Company, priority 1985, dated 1987).
In brackets after ≈: the same amount, converted by molar mass.

Columns and labels:
[1] = test system: Haemophilus influenzae C.L.; test: agar-dilution MIC; type: cell-based; details: ampicillin-sensitive strain
Description: (§1) The MIC's in Table I were determined by standard agar-dilution assays. The MIC's in Table II were obtained using a conventional broth-dilution microtiter test.

[2] = test system: Staphylococcus aureus S13E; test: agar-dilution MIC; type: cell-based
Description: as §1

[3] = test system: Staphylococcus epidermidis EPI1; test: agar-dilution MIC; type: cell-based
Description: as §1

[4] = test system: Staphylococcus aureus X1.1; test: agar-dilution MIC; type: cell-based
Description: as §1

[5] = test system: Staphylococcus epidermidis EPI2; test: agar-dilution MIC; type: cell-based
Description: as §1

[6] = test system: Streptococcus pyogenes C203; test: agar-dilution MIC; type: cell-based
Description: as §1

[7] = test system: Klebsiella pneumoniae X26; test: agar-dilution MIC; type: cell-based
Description: as §1

Eschericia coli TEM = test: agar-dilution MIC; type: cell-based
Description: as §1

[8] = test system: Staphylococcus aureus X400; test: agar-dilution MIC; type: cell-based; details: Staphylococcus aureus X400, methicillin-resistant strain
Description: as §1

[9] = test system: Streptococcus pneumoniae Park I; test: agar-dilution MIC; type: cell-based
Description: as §1

[10] = test system: Staphylococcus aureus V41; test: agar-dilution MIC; type: cell-based; details: Staphylococcus aureus V41, penicillin-resistant strain
Description: as §1

[11] = test system: Haemophilus influenzae 76; test: agar-dilution MIC; type: cell-based; details: Haemophilus influenzae 76, ampicillin-resistant strain
Description: as §1

[12] = test system: Streptococcus pneumoniae Group D X66; test: agar-dilution MIC; type: cell-based
Description: as §1

[13] = test system: Streptococcus pneumoniae Group D 9960; test: agar-dilution MIC; type: cell-based; details: GROUPD9960
Description: as §1

Mycoplasma gallisepticum = test: antimycoplasmal activity in experimentally infected chicks; type: in vivo; details: gavage, 0.5 g/gal × 5, 21 days after infection; for Number with Antibodies / Number Tested: antibodies to M. gallisepticum; for Number with Antibodies / Number Tested / Number with Air-Sac Lesions / Number Treated: infected control 10/10, uninfected control 0/10; for Mortality: infected control 2/7
Description: In these tests infections were induced in chicks by injecting 0.2 ml of a broth culture of M. gallisepticum into the abdominal air sac of one- to three-day-old chicks. The compounds were administered by gavage at a dose equivalent to 0.5 g/gal two times on the day of infection, two times on the day following infection and one time on the third day. Twenty-one days after infection the chicks were weighed, a blood sample was taken, and the chicks were sacrificed. The presence or absence of air-sac lesions was recorded.

[14] = test system: Pasteurella multocida 60A; test: broth-dilution microtiter MIC; type: cell-based; details: avian isolate
Description: as §1

[15] = test system: Pasteurella multocida 17E; test: broth-dilution microtiter MIC; type: cell-based; details: bovine isolate
Description: as §1

Streptococcus sp. 80 = test: broth-dilution microtiter MIC; type: cell-based
Description: as §1

[16] = test system: Mycoplasma hyopneumonia S-5972; test: broth-dilution microtiter MIC; type: cell-based; details: S5972
Description: as §1

Staphylococcus aureus = test: broth-dilution microtiter MIC; type: cell-based
Description: as §1

[17] = macrocin vs tylosin, lactenocin vs desmycosin; cited from earlier work

SMILES | MIC [1] [µg/mL] | MIC [2] [µg/mL] | MIC [3] [µg/mL] | MIC [4] [µg/mL] | MIC [5] [µg/mL] | MIC [6] [µg/mL] | MIC [7] [µg/mL] | MIC (Eschericia coli TEM) [µg/mL] | MIC [8] [µg/mL] | MIC [9] [µg/mL] | MIC [10] [µg/mL] | MIC [11] [µg/mL] | MIC [12] [µg/mL] | MIC [13] [µg/mL] | Number with Antibodies / Number Tested (Mycoplasma gallisepticum) | Mortality (Mycoplasma gallisepticum) | MIC [14] [µg/mL] | MIC [15] [µg/mL] | MIC (Streptococcus sp. 80) [µg/mL] | MIC (Staphylococcus aureus) [µg/mL] | other results
CCC1OC(=O)CC(OC(C)=O)C(C)C(OC2OC(C)C(OC3CC(C)(O)C(OC(=O)CC(C)C)C(C)O3)C(N(C)C)C2O)C(CC=O)CC(C)C(=O)C=CC(C)=CC1COC1OC(C)C(O)C(O)C1OC (stereo not shown) [3-Acetyl-4"-Isovaleryl-macrocin, 3-O-acetyl-4"-O-isovalerylmacrocin] | 32 (≈ 31.1 µM) | 1 (≈ 0.973 µM) | 0.5 (≈ 0.486 µM) | 0.5 (≈ 0.486 µM) | 2 (≈ 1.95 µM) | 0.25 (≈ 0.243 µM) | 64 (≈ 62.2 µM) | 128 (≈ 124 µM) | 2 (≈ 1.95 µM) | 0.5 (≈ 0.486 µM) | 1 (≈ 0.973 µM) | 16 (≈ 15.6 µM) | 2 (≈ 1.95 µM) | 2 (≈ 1.95 µM) | 10/10 | 0/10 | > 50 | 50 (≈ 48.6 µM) | 0.39 (≈ 0.379 µM) | 1.56 (≈ 1.52 µM) | Number with Air-Sac Lesions / Number Treated (Mycoplasma gallisepticum): 1/10; MIC [16]: 0.048 µg/mL (≈ 0.0467 µM)
CCC1OC(=O)CC(O)C(C)C(OC2OC(C)C(O)C(N(C)C)C2O)C(CC=O)CC(C)C(=O)C=CC(C)=CC1COC1OC(C)C(O)C(O)C1OC (stereo not shown) [lactenocin] |  |  |  |  |  |  |  |  |  |  |  |  |  |  |  |  |  |  |  |  | antibiotic activity relative to tylosin / desmycosin [17]: less than that of tylosin and desmycosin, respectively
CCC1OC(=O)CC(OC(C)=O)C(C)C(OC2OC(C)C(OC3CC(C)(O)C(O)C(C)O3)C(N(C)C)C2O)C(CC=O)CC(C)C(=O)C=CC(C)=CC1COC1OC(C)C(O)C(O)C1OC (stereo not shown) [3-Acetyl-macrocin, 3-O-Acetylmacrocin] | 32 (≈ 33.9 µM) | 1 (≈ 1.06 µM) | 0.5 (≈ 0.53 µM) | 0.5 (≈ 0.53 µM) | 2 (≈ 2.12 µM) | 0.25 (≈ 0.265 µM) | 64 (≈ 67.8 µM) | 64 (≈ 67.8 µM) | 2 (≈ 2.12 µM) | 0.5 (≈ 0.53 µM) | 1 (≈ 1.06 µM) | 16 (≈ 16.9 µM) | 2 (≈ 2.12 µM) | 2 (≈ 2.12 µM) |  |  | > 50 | 50 (≈ 53 µM) | 1.56 (≈ 1.65 µM) | 1.56 (≈ 1.65 µM) | 
CCC1OC(=O)CC(O)C(C)C(OC2OC(C)C(OC3CC(C)(O)C(O)C(C)O3)C(N(C)C)C2O)C(CC=O)CC(C)C(=O)C=CC(C)=CC1COC1OC(C)C(O)C(O)C1OC (stereo not shown) [macrocin] |  |  |  |  |  |  |  |  |  |  |  |  |  |  |  |  |  |  |  |  | antibiotic activity relative to tylosin / desmycosin [17]: less than that of tylosin
CCCC(=O)OC1C(C)OC(OC2C(C)OC(OC3C(CC=O)CC(C)C(=O)C=CC(C)=CC(COC4OC(C)C(O)C(O)C4OC)C(CC)OC(=O)CC(OC(C)=O)C3C)C(O)C2N(C)C)CC1(C)O (stereo not shown) [3-Acetyl-4"-(n-Butyryl)-macrocin, 3-O-Acetyl-4"-O-(n-Butyryl)macrocin] | 32 (≈ 31.6 µM) | 2 (≈ 1.97 µM) | 1 (≈ 0.986 µM) | 1 (≈ 0.986 µM) | 2 (≈ 1.97 µM) | 0.5 (≈ 0.493 µM) | 64 (≈ 63.1 µM) | > 128 | 2 (≈ 1.97 µM) | 0.25 (≈ 0.246 µM) | 1 (≈ 0.986 µM) | 32 (≈ 31.6 µM) | 2 (≈ 1.97 µM) | 2 (≈ 1.97 µM) | 7/9 | 1/7 | 50 (≈ 49.3 µM) | 50 (≈ 49.3 µM) | 0.39 (≈ 0.385 µM) | 3.12 (≈ 3.08 µM) | Number with Air-Sac Lesions / Number Treated (Mycoplasma gallisepticum): 7/10; MIC [16]: 0.048 µg/mL (≈ 0.0473 µM)
CCC1OC(=O)CC(OC(C)=O)C(C)C(OC2OC(C)C(O)C(N(C)C)C2O)C(CC=O)CC(C)C(=O)C=CC(C)=CC1COC1OC(C)C(O)C(O)C1OC (stereo not shown) [3-Acetyl-lactenocin, 3-O-Acetyllactenocin] | 16 (≈ 20 µM) | 2 (≈ 2.5 µM) | 1 (≈ 1.25 µM) | 1 (≈ 1.25 µM) | 4 (≈ 5 µM) | 0.25 (≈ 0.313 µM) | 32 (≈ 40 µM) | 64 (≈ 80 µM) | 4 (≈ 5 µM) | 0.5 (≈ 0.625 µM) | 2 (≈ 2.5 µM) | 8 (≈ 10 µM) | 8 (≈ 10 µM) | 8 (≈ 10 µM) |  |  | 25 (≈ 31.3 µM) | 12.5 (≈ 15.6 µM) | 1.56 (≈ 1.95 µM) | 3.12 (≈ 3.9 µM) | 
